{"source": "patent US9561238B2", "about": "“Pharmaceutical compositions comprising estetrol derivatives for use in cancer therapy” (Donesta Bioscience B. V., priority 2002, dated 2017)", "key": {"[1]": {"test_system": "DMH-induced malignant colon tumours", "details": "previously published; cited from earlier work"}, "[2]": {"test_system": "DMBA-induced mammary tumours", "experiment": "7,12-dimethyl-benz(a)anthracene (DMBA)-induced tumour model in rats", "format": "in vivo, rat", "experimental": "In order to further assess the anti-tumour efficacy of the estrogenic substances of the present invention, estetrol was tested in the 7,12-dimethyl-benz(a)anthracene (DMBA)-induced tumour model in rats. This model, originally developed by Huggins et al., 1961 (Nature, 19, 204-207), has been widely used and is a generally accepted model with predictive value for anti-tumour agents in humans.\nEighty-four female Sprague-Dawley rats (Harlan, The Netherlands) were group housed, maintained in a 12-hr light/dark environment, and fed a Soya Free Diet (SDS England) and water ad libitum. Animals were weighed on a weekly basis. One week prior to induction of mammary carcinoma, 12 animals (aged 43 days) were surgically castrated via removal of the ovaries. At the age of 50 days, all animals were administered a single oral dose of 16 mg DMBA to induce tumour development. […]\nDuring the treatment period of 8 weeks, the emergence of palpable tumours and number of tumours were determined weekly. […]"}, "[3]": {"test_system": "DMH-induced malignant colon tumours", "experiment": "1,2 dimethylhydrazine (DMH)-induced colon cancer in ovariectomized female rats", "format": "in vivo, rat", "details": "estetrol orally 0.1 to 3.0 mg/kg/day; necropsy 15 weeks after first DMH", "experimental": "A study is performed to examine the effect of estetrol on 1,2 dimethylhydrazine (DMH)-induced colon cancer in ovariectomized female rats.\nDMH-induced cancer development is chosen as a model of “estrogen-suppressed tumours”, because it mimics the human situation of colon carcinomas closely:\nOne week prior to induction of colon carcinomas, fifty sexually mature female Sprague-Dawley rats, weighing between 150 and 200 gram (Harlan, The Netherlands), are surgically castrated via removal of the ovaries. During the experiment, rats are maintained in separate plastic cages at 12 hour light/dark cycles and allowed free access to food (Purina chow) and water.\nAnimals are randomly allocated to one of five groups, each consisting of 10 rats, which, starting three days after ovariectomy and ending at autopsy, receive placebo or estetrol treatment during the experiment as follows: • Group 1 animals receiving placebo oral treatment with 3.0 ml/kg/day vehicle (20% wt/vol solution of hydroxypropyl-beta-cyclodextrin in water); • Group 2 animals receiving estetrol orally at a single daily dose of 0.1 mg/kg; • Group 3 animals receiving estetrol orally at a single daily dose of 0.3 mg/kg; • Group 4 animals receiving estetrol orally at a single daily dose of 1.0 mg/kg; • Group 5 animals receiving estetrol orally at a single daily dose of 3.0 mg/kg. […]"}, "human ERα": {"molecular_target": "human ERα (Homo sapiens (Human), UniProt P03372)", "sequence (P03372 whole entry)": "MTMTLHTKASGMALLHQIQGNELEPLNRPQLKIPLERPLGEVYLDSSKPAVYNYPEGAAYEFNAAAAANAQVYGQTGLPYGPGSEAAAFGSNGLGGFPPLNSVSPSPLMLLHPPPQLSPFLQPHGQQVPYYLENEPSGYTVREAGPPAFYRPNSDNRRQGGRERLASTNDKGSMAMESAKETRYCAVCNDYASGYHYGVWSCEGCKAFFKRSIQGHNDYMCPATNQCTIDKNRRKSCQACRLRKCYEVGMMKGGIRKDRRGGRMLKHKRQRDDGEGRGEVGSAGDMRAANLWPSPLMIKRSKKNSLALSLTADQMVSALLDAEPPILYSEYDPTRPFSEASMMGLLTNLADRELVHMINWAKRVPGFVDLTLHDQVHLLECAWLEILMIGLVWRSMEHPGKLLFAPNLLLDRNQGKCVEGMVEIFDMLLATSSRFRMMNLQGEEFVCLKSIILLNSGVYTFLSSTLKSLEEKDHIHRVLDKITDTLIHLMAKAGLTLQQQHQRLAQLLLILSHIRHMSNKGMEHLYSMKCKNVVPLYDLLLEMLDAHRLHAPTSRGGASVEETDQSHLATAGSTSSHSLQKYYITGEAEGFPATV", "experiment": "Competitive steroid binding assay, ERα", "details": "preference for binding to ERα protein over ERβ, from Ki values"}, "[4]": {"experiment": "Agonistic models of in vivo estrogenicity (bone resorption, hot flushing, vaginal cornification), previous studies", "details": "for in vivo estrogenicity in preventing bone resorption, prevention of hot flushing and vaginal cornification: 0.125 mg/kg/day EE compared with […] E4; for potency in agonistic models of preventing bone resorption, prevention of hot flushing and vaginal cornification: […] EE compared with 0.5 mg/kg/day E4"}, "[5]": {"test_system": "DMBA-induced mammary tumours", "details": "literature; cited from earlier work"}}, "data": [{"compound": "C[C@]12CC[C@@H]3c4ccc(O)cc4CC[C@H]3[C@@H]1CC[C@@H]2O", "note": "[E2, 17β-estradiol]", "values": [{"measurement": "protection in the DMH model", "setting": "[1]", "value": "confers protection"}]}, {"compound": "C[C@]12CC[C@@H]3c4ccc(O)cc4CC[C@H]3[C@@H]1[C@@H](O)[C@@H](O)[C@@H]2O", "note": "[E4, 1,3,5(10)-estratrien-3,15α,16α,17β-tetrol]", "values": [{"measurement": "preventing growth of DMBA-induced tumours, compared with tamoxifen", "setting": "[2]; E4 […] vs tamoxifen 3 mg/kg/day orally", "value": "as effective as tamoxifen"}, {"measurement": "number of malignant tumours", "setting": "[3]", "value": "declines as a function of increasing the daily oral estetrol dose"}, {"measurement": "Relative ERα/ERβ preference", "setting": "human ERα", "value": 400, "unit": "%"}, {"measurement": "in vivo estrogenicity in preventing bone resorption, prevention of hot flushing and vaginal cornification", "setting": "[4]", "value": "equipotency"}, {"measurement": "potency in agonistic models of preventing bone resorption, prevention of hot flushing and vaginal cornification", "setting": "[4]", "value": "equipotency"}]}, {"compound": "C#C[C@]1(O)CC[C@H]2[C@@H]3CCc4cc(O)ccc4[C@H]3CC[C@@]21C", "note": "[EE, 17α-ethinylestradiol]", "values": [{"measurement": "in vivo estrogenicity in preventing bone resorption, prevention of hot flushing and vaginal cornification", "setting": "[4]", "value": "equipotency"}, {"measurement": "potency in agonistic models of preventing bone resorption, prevention of hot flushing and vaginal cornification", "setting": "[4]", "value": "equipotency"}]}, {"compound": "CC/C(=C(\\c1ccccc1)c1ccc(OCCN(C)C)cc1)c1ccccc1", "note": "[tamoxifen]", "values": [{"measurement": "development of mammary tumours", "setting": "[2]; tamoxifen 3 mg/kg/day orally, 8 weeks", "value": "inhibiting the development of mammary tumours"}, {"measurement": "anti-tumour treatment in the DMBA model", "setting": "[5]", "value": "effective anti-tumour treatments"}]}]}
